Experiment [1] concerns T-Rex 293 cell line SC3 cells having increased expression of androgen receptor protein. The experiment can be described thus: Cellular growth inhibition, T-Rex 293 SC3 cells with increased androgen receptor expression (doxycycline), CellTiter-Glo. The format is cell-based. The note with it: T-Rex 293 SC3 cells with increased androgen receptor expression (exposed to 10 ng/mL doxycycline), 72 hours, CellTiter-Glo; read-out: GI50. The gist of the method: (§1)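 SC3, a T-Rex 293 clone with doxycycline-inducible wild-type androgen receptor, was seeded in phenol red-free DMEM with 10% charcoal-dextran FBS, with or without 10 ng/mL doxycycline. Compound added at 24 h (0.5% DMSO) for 72 h at 37° C. CellTiter-Glo 2.0 luminescence; GI50 from four-parameter fit.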

The subject of another experiment is VCaP cells. In words: Cellular growth inhibition assay for VCaP cells, CellTiter-Glo. The note with it: VCaP cells, 72 hours, CellTiter-Glo, read-out: GI50. The format is cell-based, human. The gist of the method: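 GI50 values come from four-parameter curve fits of luminescence data normalized to a zero baseline. Compound, in medium with 0.5% DMSO, was added one day after plating and left for 72 h before CellTiter-Glo 2.0 addition.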

Experiment [2] deals with T-Rex 293 cell line SC cells lacking increased expression of progesterone receptor isoform B protein. In words: Cellular growth inhibition, T-Rex 293 SC cells lacking increased progesterone receptor isoform B expression (no doxycycline), CellTiter-Glo. The format is cell-based. The note with it: T-Rex 293 SC cells not exposed to doxycycline, 72 hours. On the procedure: (§2) The following types of cells were prepared for this experiment: (i) a T-Rex 293 cell line having increased expression of progesterone receptor isoform B protein due to exposure to doxycycline and (ii) a T-Rex 293 cell line lacking increased expression of progesterone receptor isoform B protein. Ability of the test compounds to inhibit proliferation of the foregoing cell types was evaluated according to the procedures set forth below.
(§3) The doxycycline-inducible progesterone receptor isoform B protein expressing cell line was established using the following protocol: T-Rex 293 cells were purchased from Invitrogen (Cat #R71007) and transfected using Lipofectamine 2000 with the wild-type progesterone receptor B protein sequence cloned into the pcDNA4/TO vector. Transfected cells were selected using 400 μg/mL Zeocin (Invitrogen Cat #R25001). Following selection, single clones were raised and maintained in Dulbecco's Modified Eagle Medium (DMEM) supplemented with 10% w/w Tetracycline-free fetal bovine serum (FBS) and 250 μg/mL Zeocin. Clones were analyzed for expression of progesterone receptor isoform B protein in the presence and absence of 10 ng/ml doxycycline (Sigma Cat #D9891), and a single doxycycline-inducible clone (hereinafter “SC”) was selected for use in downstream assays.
(§4) The SC cells were seeded on poly-D-lysine coated, black clear-bottom 384-well plates at 2500/well, in 25 μL Phenol Red Free Dulbecco's Modified Eagle Medium (DMEM) supplemented with 10% w/w charcoal-dextran treated fetal bovine serum (FBS) and 1% w/w pen-strep, with or without 10 ng/mL doxycycline. Pen-Strep is a commercially available mixture of penicillin G and streptomycin, which is used in mammalian cell culture media to prevent bacterial contamination. Phenol Red Free Dulbecco's Modified Eagle Medium (DMEM) supplemented with 10% w/w charcoal-dextran treated fetal bovine serum (FBS) and 1% w/w pen-strep, with or without 10 ng/mL doxycycline is herein referred to as Treatment Medium. Following seeding of cells in the plates, the plates were spun at 300×g for 30 seconds, then equilibrated to room temperature for 30 minutes, and then deposited in a humidified tissue culture incubator maintained at 37° C. with 5% CO2.
(§5) At 24 hours after seeding of the cells, dilutions of test compound were prepared in DMSO and dissolved in Treatment Medium, to achieve a final DMSO concentration of 0.5% w/w, thereby providing the Test Compound Solution. A 25 μL aliquot of the Test Compound Solution was added to cells in the well plates. An equal volume of a solution containing DMSO and Treatment Medium was used as a negative control. Following treatment of cells with Test Compound Solution or said equal volume of a solution containing DMSO and Treatment Medium, the plates were spun at 300×g for 30 seconds, and then left in an incubator for 72 hours.
(§6) At the end of the treatment duration, cell viability was quantified with CellTiter-Glo 2.0 reagent (Promega Cat #G9243). For this purpose, plates were equilibrated to room temperature for 30 minutes, and then 25 μL of CellTiter-Glo 2.0 reagent was added to cells in the plate wells. Plates were then agitated on a shaker for two minutes at 500 rpm and subsequently incubated at room temperature for 10 minutes. Following incubation, the plates were spun at 3000×g for 30 seconds, then sealed with an optical adhesive cover, and luminescence readings were measured with an EnVision Plate Reader (Perkin Elmer).
(§7) Data was normalized using zero luminescence for baseline. A four-parameter non-linear regression curve fit was applied to dose-response data in GraphPad Prism data analysis software to determine the half-maximal growth inhibitory concentration (GI50) for each test compound.

For experiment [3], the system named is T-Rex 293 cell line SC cells having increased expression of progesterone receptor isoform B protein. The experiment can be described thus: Cellular growth inhibition, T-Rex 293 SC cells with increased progesterone receptor isoform B expression (doxycycline), CellTiter-Glo. The format is cell-based. The note with it: progesterone receptor isoform B induced with 10 ng/mL doxycycline, 72 hours. On the procedure: as §2, §3, §4, §5, §6, §7

In experiment [4] the test system is T-Rex 293 cell line SC3 cells lacking increased expression of androgen receptor protein. The experiment can be described thus: Cellular growth inhibition, T-Rex 293 SC3 cells lacking increased androgen receptor expression (no doxycycline), CellTiter-Glo. The format is cell-based. The note with it: T-Rex 293 SC3 cells lacking increased androgen receptor expression (not exposed to doxycycline), 72 hours, CellTiter-Glo; read-out: GI50. The gist of the method: as §1

The test system of the next experiment is T47D cells. In words: Cellular growth inhibition assay for T47D cells, CellTiter-Glo. The format is cell-based, human. The note with it: 72 hours treatment, CellTiter-Glo 2.0. Summed up: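 Luminescence from CellTiter-Glo 2.0 after 72 h of compound exposure gives the viability signal. Cells grew in insulin-supplemented (0.2 units/mL) DMEM with 10% FBS and were treated one day after seeding at 0.5% DMSO. GI50 values come from four-parameter nonlinear regression.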

The structures appear in SMILES notation. Like-named read-outs stand apart in the source and are kept apart here.

For the compound `CCS(=O)(=O)Nc1ccc(Oc2cccc(OCCOCCOCCOC3CCN(c4ccc(C(=O)N[C@H]5CC[C@H](Oc6ccc(C#N)c(Cl)c6)CC5)nn4)CC3)c2)c(-c2cn(C)c(=O)c3[nH]ccc23)c1` [I-2, N-[4-(3-chloro-4-cyano-phenoxy)cyclohexyl]-6-[4-[2-[2-[2-[3-[4-(ethylsulfonylamino)-2-(6-methyl-7-oxo-1H-pyrrolo[2,3-c]pyridin-4-yl)phenoxy]phenoxy]ethoxy]ethoxy]ethoxy]-1-piperidyl]pyridazine-3-carboxamide], the GI50 in experiment [1] is below 500 nM; with VCaP cells (Homo sapiens), below 500 nM; in experiment [2] it was below 500 nM; in experiment [3], below 500 nM; in experiment [4], 500 to 1500 nM; with T47D cells (Homo sapiens), below 500 nM.

Take `CCS(=O)(=O)Nc1ccc(Oc2cccc(N3CC(OC4CCN(c5ccc(C(=O)N[C@H]6CC[C@H](Oc7ccc(C#N)c(Cl)c7)CC6)nn5)CC4)C3)c2F)c(-c2cn(C)c(=O)c3[nH]ccc23)c1` [I-25]: the GI50 in experiment [1] is below 500 nM; in the experiment on VCaP cells (Homo sapiens), below 500 nM; in experiment [2], below 500 nM; in experiment [3], below 500 nM; in experiment [4], above 3000 nM; with T47D cells (Homo sapiens), below 500 nM.

As for `CCS(=O)(=O)c1ccc(Oc2cccc(OCCN3CCN(c4ccc(C(=O)NC5CCC(Oc6ccc(C#N)c(Cl)c6)CC5)nn4)CC3)c2F)c(-c2cn(C)c(=O)c3[nH]ccc23)c1` (centres unmarked) [I-40, N-[4-(3-chloro-4-cyano-phenoxy)cyclohexyl]-6-[4-[2-[3-[4-ethylsulfonyl-2-(6-methyl-7-oxo-1H-pyrrolo[2,3-c]pyridin-4-yl)phenoxy]-2-fluoro-phenoxy]ethyl]piperazin-1-yl]pyridazine-3-carboxamide], the GI50 (in experiment [1]; in the experiment on VCaP cells (Homo sapiens); in experiment [2]; in experiment [3]; in experiment [4]; in the experiment on T47D cells (Homo sapiens)) was below 500 nM in each case.

As for `CCS(=O)(=O)c1ccc(Oc2cccc(CCCCN3CC4(C3)CN(c3ccc(C(=O)N[C@H]5CC[C@H](Oc6ccc(C#N)c(Cl)c6)CC5)nn3)C4)c2F)c(-c2cn(C)c(=O)c3[nH]ccc23)c1` [I-47], the GI50 (in experiment [1]; with VCaP cells (Homo sapiens); in experiment [2]; in experiment [3]; in experiment [4]; in the experiment on T47D cells (Homo sapiens)) was below 500 nM throughout.

As to `Cn1cc(-c2cc(C(C)(C)O)ccc2Oc2ccc(OCC3CCN(c4ccc(C(=O)N[C@H]5CC[C@H](Oc6ccc(C#N)c(Cl)c6)CC5)nn4)CC3)cc2)c2cc[nH]c2c1=O` [I-96], the 50% growth inhibitory concentration (GI50) (in experiment [1]; in the experiment with VCaP cells; in experiment [2]; in experiment [3]; in experiment [4]; in the experiment on T47D cells) was below 500 nM throughout.

For the compound `Cn1cc(-c2cc(C(C)(C)O)ccc2Oc2ccc(OCCN3CCN(c4ccc(C(=O)N[C@H]5CC[C@H](Oc6ccc(C#N)c(Cl)c6)CC5)nn4)CC3)cc2)c2cc[nH]c2c1=O` [I-97], the GI50 (in experiment [1]; in the experiment on VCaP cells (Homo sapiens); in experiment [2]; in experiment [3]; in experiment [4]; in the experiment on T47D cells (Homo sapiens)) was below 500 nM each time.

In the case of `CN(CCOc1ccc(Oc2ccc(C(C)(C)O)cc2-c2cn(C)c(=O)c3[nH]ccc23)cc1)c1ccc(C(=O)N[C@H]2CC[C@H](Oc3ccc(C#N)c(Cl)c3)CC2)nn1` [I-98], the GI50 (in experiment [1]; in the experiment with VCaP cells; in experiment [2]; in experiment [3]; in experiment [4]) was below 500 nM in each case.

In the case of `CN(CCCOc1ccc(Oc2ccc(C(C)(C)O)cc2-c2cn(C)c(=O)c3[nH]ccc23)cc1)c1ccc(C(=O)N[C@H]2CC[C@H](Oc3ccc(C#N)c(Cl)c3)CC2)nn1` [I-99], the GI50 in experiment [1] is below 500 nM; in the experiment with VCaP cells, below 500 nM; in experiment [2] it was 500 to 1500 nM; in experiment [3] it was below 500 nM; in experiment [4], below 500 nM; in the experiment on T47D cells, 500 to 1500 nM.

In the case of `CN(CCc1ccc(Oc2ccc(C(C)(C)O)cc2-c2cn(C)c(=O)c3[nH]ccc23)cc1)c1ccc(C(=O)NC2CCC(Oc3ccc(C#N)c(Cl)c3)CC2)nn1` (centres unmarked) [I-100, N-[4-(3-chloro-4-cyano-phenoxy)cyclohexyl]-6-[2-[4-[4-(1-hydroxy-1-methyl-ethyl)-2-(6-methyl-7-oxo-1H-pyrrolo[2,3-c]pyridin-4-yl)phenoxy]phenyl]ethyl-methyl-amino]pyridazine-3-carboxamide], the GI50 (in experiment [1]; with VCaP cells (Homo sapiens); in experiment [2]; in experiment [3]; in experiment [4]; in the experiment on T47D cells (Homo sapiens)) was below 500 nM in each case.

On to `Cn1cc(-c2cc(C(C)(C)O)ccc2Oc2ccc(CC3CCN(c4ccc(C(=O)N[C@H]5CC[C@H](Oc6ccc(C#N)c(Cl)c6)CC5)nn4)CC3)cc2)c2cc[nH]c2c1=O` [I-101], for which the concentration for 50% growth inhibition (GI50) is below 500 nM in experiment [1]; below 500 nM with VCaP cells (Homo sapiens); below 500 nM in experiment [2]; below 500 nM in experiment [3]; 500 to 1500 nM in experiment [4]; below 500 nM with T47D cells (Homo sapiens).

`Cn1cc(-c2cc(C(C)(C)O)ccc2Oc2ccc(CCOC3CCN(c4ccc(C(=O)N[C@H]5CC[C@H](Oc6ccc(C#N)c(Cl)c6)CC5)nn4)CC3)cc2)c2cc[nH]c2c1=O` [I-103]: the GI50 (in experiment [1]; with VCaP cells (Homo sapiens); in experiment [2]; in experiment [3]; in experiment [4]; with T47D cells (Homo sapiens)) was below 500 nM in each case.

Take `CN(c1ccc(Oc2ccc(C(C)(C)O)cc2-c2cn(C)c(=O)c3[nH]ccc23)cc1)C1CN(c2ccc(C(=O)N[C@H]3CC[C@H](Oc4ccc(C#N)c(Cl)c4)CC3)nn2)C1` [I-138]: the 50% growth inhibitory concentration (GI50) (in experiment [1]; with VCaP cells (Homo sapiens); in experiment [2]; in experiment [3]; in experiment [4]; in the experiment with T47D cells (Homo sapiens)) was below 500 nM each time.

For the compound `Cn1cc(-c2cc(C(C)(C)O)ccc2Oc2ccc(N3CCN(c4ccc(C(=O)N[C@H]5CC[C@H](Oc6ccc(C#N)c(Cl)c6)CC5)nn4)CC3)cc2)c2cc[nH]c2c1=O` [I-139], the GI50 (in experiment [1]; with VCaP cells; in experiment [2]; in experiment [3]; in experiment [4]; in the experiment with T47D cells) was below 500 nM each time.

(Values after patent US20250388575A1, “HETEROBIFUNCTIONAL COMPOUNDS AND METHODS OF TREATING DISEASE” (Halda Therapeutics OpCo, Inc., priority 2022, published 2025).)
